Laboratory results taken from patent US6908902B2, “Treatment of neurological dysfunction comprising fructopyranose sulfamates and erythropoietin” (Ortho-McNeil Pharmaceutical, Inc., priority 2001, dated 2005).

What was measured:
Format in all cases: cell-based
Rat Cortical Cultures [1] = assay: Array Scan Assay, Neurite Outgrowth (Neuron-specific); conditions: mean of eight observations
From the text: (§1) Dissociated hippocampal and cortical cell cultures were established from embryonic Day 18 rat fetuses as previously described (Mattson et al., 1994). Briefly, fetuses were removed via cesarean section from pregnant rats (Sprague-Dawley) and anesthetized with halothane according to the AVMA Panel on Euthanasia. Fetuses were decapitated and the brains were removed and placed in HEPES-buffered Hank's Balanced Salt solution (HBSS; Gibco). The hippocampi and cortices were dissected out and pooled according to tissue-type. Tissue was trypsinized for fifteen minutes (1 mg/ml trypsin-HBSS; Worthington), rinsed with fresh HBSS, incubated in trypsin inhibitor (1 mg/ml; Sigma) for five minutes, rinsed again with fresh HBSS and then triturated in 1 ml fresh HBSS with a fire-polished glass pipette. Dissociated cells were seeded at 20,000 cells (Array Scan Assay) and 30,000 cells (MAP2-FITC assay)/well onto poly-D-lysine coated 96-well plates (Collaborative BioScience). Each well contained 100 μl of Eagle's Minimal Essential Media (MEM; Gibco) supplemented with 26 mM NaHCO3 (Sigma), 56 mM glucose (Sigma), 15 mM KCl (Sigma), 1 mM sodium pyruvate (Sigma), 1.1 mM L-glutamine (Sigma), 10% (v/v) heat-inactivated fetal bovine serum (Hyclone), and 0.001% gentamicin sulfate (Sigma) (pH 7.4). Cells were allowed to attach for twenty-four hours in a humidified 37° C. 5% CO2 incubator before experimental treatment. The culture media was aspirated and exchanged with fresh media every three days.
Twenty-four hours after plating, rat cerebral cortical cell cultures, prepared as described above, were treated with vehicle (phosphate buffered saline+0.1% bovine serum albumin; Sigma), topiramate, EPO (rhEPO; 50 μM stock in 0.2 M citrate, 0.585 g/L NaCl diluted to appropriate concentrations in phosphate buffered saline+0.1% bovine serum albumin (BSA; Sigma)) or a combination of topiramate and EPO. On the third day in culture, the media was aspirated off and replaced with fresh media and test compound.
Culture media (prepared as described above) was aspirated and replaced with formaldehyde/Hoechst solution (fix cells and stain nuclei). Cultures were incubated in this solution for twenty minutes, then washed with permeabilization/wash/antibody (PWA) buffer. The buffer solution was aspirated and 100 μl of primary antibody (rabbit polyclonal IgG; specific for an epitope present only in neurons and neurites) was added to each well. The cultures were incubated for 60 minutes, then washed with PWA buffer. The buffer solution was again aspirated and 100 μl of secondary antibody (Alexa Fluor 488 conjugated goat anti-rabbit IgG) was added to each well. The cultures were incubated for 60 minutes and then washed with PWA buffer, followed by phosphate buffered saline (PBS) solution.
100 μl PBS-CM were added to each well, the plates were sealed and fluorescence was read on the Array Scan II System. (All reagents for this measurement were provided by the neurite outgrowth hit kit # K07-0001-1, Cellomics Inc.) The Array Scan algorithm for neurite outgrowth calculates the neurite outgrowth index for each field per well. This number represents the number of neurons with neurites divided by the total number of neurons in the field.
The ability of rhEPO, topiramate (TPM) and the combination of rhEPO and topiramate to increase neurite outgrowth in rat cortical cell cultures was determined according to the procedure described above, with results as listed in Table 1. For each dosage concentration, the measured value in the Table represents the mean percent change of eight experimental observations (from vehicle control). The abbreviation NT, as used in the Table below represents a concentration not tested.

Rat Hippocampal Cultures = assay: Neurite Outgrowth MAP2-FITC Assay for Rat Hippocampal Cells; conditions: one week in culture, mean of eight observations
From the text: as §1
(§2) Twenty-four hours after plating, rat hippocampal cell cultures, prepared as in Example 1, were treated with vehicle (phosphate buffered saline+0.1% bovine serum albumin; Sigma), topiramate, EPO (rhEPO; 50 μM stock in 0.2 M citrate, 0.585 g/L NaCl diluted to appropriate concentrations in phosphate buffered saline+0.1% bovine serum albumin (BSA; Sigma)) or a combination of topiramate and EPO. On the third day in culture, the media was aspirated off and replaced with fresh media and test compound. At one week in culture, the cells were fixed with 10% phosphate-buffered formalin for fifteen minutes, then rinsed with phosphate buffered saline and placed in blocking serum for thirty minutes (horse serum; 1:50 dilution in phosphate buffered saline; Vector Labs). Cultures were rinsed again with phosphate buffered saline and then incubated in primary antibody for two hours (microtubule-associated protein-2 (MAP-2) is a selective marker for dendritic processes; anti-mouse monoclonal (Chemicon); 1:1000 dilution of MAP-2 in antibody diluent (Zymed)). Negative control wells were incubated in antibody diluent alone. Background signal was determined by blank wells (cell-free) incubated with or without antibody. Cultures were rinsed again with phosphate buffered saline and then placed in fluorescein-labeled secondary antibody for 1 hr (FITC; anti-mouse IgG; rat adsorbed; 1:50 dilution in DPBS; Vector Labs). Cultures were rinsed a final time with phosphate buffered saline. The plates were then read on a Cytofluor 4000 fluorescence plate reader. Neurite outgrowth was expressed as percent change from control (vehicle; mean fluorescence±SEM).
(§3) The ability of rhEPO, topiramate and the combination of rhEPO and topiramate to increase neurite outgrowth in rat hippocampal cultures was determined according to the procedure described above, with results as listed in Table 2. For each case or treatment, the measured value in the Table represents the mean percent change of eight experimental observations (from vehicle control). The abbreviation NT, as used in Table 2 represents a concentration not tested.

Rat Cortical Cultures [2] = assay: Neurite Outgrowth MAP2-FITC Assay for Rat Cortical Cells; conditions: one week in culture, mean of eight observations
From the text: as §1
as §2, with “cortical” for “hippocampal”, “one hour” for “1 hr”
as §3, with “cortical” for “hippocampal”, “3.” for “2.”, “3” for “2”

[3] = Concentration 1 pM (rhEPO concentration in combinations)
[4] = Concentration 10 pM (rhEPO concentration in combinations)
[5] = Concentration 100 fM (rhEPO concentration in combinations)
[6] = Concentration 1 fM (rhEPO concentration in combinations)
[7] = Concentration 10 fM (rhEPO concentration in combinations)

Compound: CC1(C)O[C@@H]2[C@@H](CO[C@@]3(COS(N)(=O)=O)OC(C)(C)O[C@@H]23)O1 [Topiramate, 2,3:4,5-bis-O-(1-methylethylidene)-β-D-fructopyranose sulfamate, reference compound]
- Neurite outgrowth, mean percent change from vehicle control (Measured) (Rat Cortical Cultures [1]; [3]): 0%
- Neurite outgrowth, mean percent change from vehicle control (Measured) (Rat Cortical Cultures [1]; [4]): 20%
- Neurite outgrowth, mean percent change from vehicle control (Measured) (Rat Cortical Cultures [1]; Concentration 100 pM): 12%
- Neurite outgrowth, mean percent change from vehicle control (Measured) (Rat Cortical Cultures [1]; [5]): 4%
- Neurite outgrowth, mean percent change from vehicle control (Measured) (Rat Hippocampal Cultures; [3]): 14%
- Neurite outgrowth, mean percent change from vehicle control (Measured) (Rat Hippocampal Cultures; [4]): 5%
- Neurite outgrowth, mean percent change from vehicle control (Measured) (Rat Hippocampal Cultures; Concentration 100 pM): −9%
- Neurite outgrowth, mean percent change from vehicle control (Measured) (Rat Hippocampal Cultures; [5]): 33%
- Neurite outgrowth, mean percent change from vehicle control (Measured) (Rat Cortical Cultures [2]; [3]): 23%
- Neurite outgrowth, mean percent change from vehicle control (Measured) (Rat Cortical Cultures [2]; [4]): 30%
- Neurite outgrowth, mean percent change from vehicle control (Measured) (Rat Cortical Cultures [2]; Concentration 100 pM): 37%
- Neurite outgrowth, mean percent change from vehicle control (Measured) (Rat Cortical Cultures [2]; [5]): 24%

Compound: rhEPO: Recombinant human erythropoietin; amino acid sequence identical to that of human urinary erythropoietin
- Neurite outgrowth, mean percent change from vehicle control (Measured) (Rat Cortical Cultures [1]; [3]): 9%
- Neurite outgrowth, mean percent change from vehicle control (Measured) (Rat Cortical Cultures [1]; [4]): 11%
- Neurite outgrowth, mean percent change from vehicle control (Measured) (Rat Cortical Cultures [1]; [6]): 29%
- Neurite outgrowth, mean percent change from vehicle control (Measured) (Rat Cortical Cultures [1]; [7]): −1%
- Neurite outgrowth, mean percent change from vehicle control (Measured) (Rat Cortical Cultures [1]; [5]): 28%
- Neurite outgrowth, mean percent change from vehicle control (Measured) (Rat Hippocampal Cultures; [3]): 20%
- Neurite outgrowth, mean percent change from vehicle control (Measured) (Rat Hippocampal Cultures; [4]): 21%
- Neurite outgrowth, mean percent change from vehicle control (Measured) (Rat Hippocampal Cultures; [6]): 21%
- Neurite outgrowth, mean percent change from vehicle control (Measured) (Rat Hippocampal Cultures; [7]): 15%
- Neurite outgrowth, mean percent change from vehicle control (Measured) (Rat Hippocampal Cultures; [5]): 12%
- Neurite outgrowth, mean percent change from vehicle control (Measured) (Rat Cortical Cultures [2]; [3]): 19%
- Neurite outgrowth, mean percent change from vehicle control (Measured) (Rat Cortical Cultures [2]; [4]): 24%
- Neurite outgrowth, mean percent change from vehicle control (Measured) (Rat Cortical Cultures [2]; [6]): −14%
- Neurite outgrowth, mean percent change from vehicle control (Measured) (Rat Cortical Cultures [2]; [7]): −2%
- Neurite outgrowth, mean percent change from vehicle control (Measured) (Rat Cortical Cultures [2]; [5]): 10%
